From patent US6559126B2 (Institut Pasteur, priority 2000, dated 2003)
Like-named read-outs stand apart in the source and are kept apart here. One block for each substance: values may come before it. Ends that are not written are not given here.

Experiments:
KDR [1] = experiment: Competition assay of 125I-VEGF binding to CHO-KDR cells; conditions: for efficiency of V1 analogues in displacing 125I-VEGF165 from CHO-KDR cells: displacement curves, FIGS. 10-11; for inhibitory effect on VEGF binding to KDR (CHO-KDR cells): fixed peptide concentration 2.1×10^−4 M, heparin present
Protocol: Competition assay of binding to CHO-KDR cells. CHO-KDR cells were seeded in 24-well plates at a density of 5×10^5 cells/well. After 24 h, subconfluent plates were transferred at 4 C., and all subsequent operations were done at 4 C. […] The amount of radioactivity bound to the cells was counted in a gamma counter (LKB 1261 Multigamma). The receptor affinity and the number of binding sites per cell were determined by Scatchard's analysis (Scatchard, 1986).

[2] = system: VEGF-induced corneal angiogenesis; experiment: Rabbit corneal pocket assay; format: in vivo; conditions: day 12; for effect on VEGF-induced corneal angiogenic response: implant with 2 pmol VEGF and 30 nmol peptide; for corneal neovascularization by peptide alone vs vehicle: implant with 30 nmol peptide, no VEGF
Protocol: Rabbit corneal pocket assay. […] These implants were inserted in New Zealand rabbit (Elevage du Trottis, Esperce, France) corneal stroma 2 mm away from the limbus (Favard et al, 1991). Neovascularization was assessed on day 12 by direct examination with a slit lamp and scored according to a 4 grade scale (grade 1: less than 1 mm long neovessels, grade 2: 1 mm long neovessels, grade 3: 1 to 2 mm long neovessels, grade 4: neovessels extending to the implant). Means and standard deviations were determined on 8 implant groups for each condition.

HUVEC = experiment: VEGF165-induced HUVEC proliferation; format: cell-based, human; conditions: V1 400 μg/ml, various VEGF165 concentrations, 96 hours
Protocol: FIG. 13 Effect of V1 (400 μg/ml) VEGF165 induced HUVEC proliferation. Various concentrations of VEGF165 were added during 96 hours.
The inhibitory effect of V1 on Human umbilical vein endothelial cell (HUVEC) in primary culture.

KDR [3] = molecular target: T1, KDR (Homo sapiens, UniProt P35968); experiment: ELISA of phage-displayed peptide binding to CHO-KDR cells; conditions: clones selected by anti-VEGF antibody binding, 10^12 pfu/ml
T1 construct: expressed in transfected cells; host or cells: glycosaminoglycan-deficient pgsA 745 CHO cells, psV-7d expression vector
Protocol: Exponentially growing CHO-KDR cells were seeded in 96-well microtiter plates at 7×10^4 cells/well and left overnight at 37 C. Cells were fixed with paraformaldehyde (4% in PBS) for 15 min at room temperature and washed with PBS. Wells were then filled with PBS-Glycine 0.2%, kept for 15 min at room temperature and then washed with PBS. Phage particles (10^12 or 10^13/Ml) were added to each well and incubated 2 h at room temperature. Wells were washed with PBS and the amount of bound phage was detected with peroxidase-conjugated anti-M13 phage serum (Pharmacia Biotech, Uppsala, Sweden).

HUAE cells [4] = experiment: KDR anti-idiotypic antibody (AIA)-induced HUAE cell proliferation; format: cell-based, human; conditions: 100 ng/ml KDR anti-idiotypic antibodies, peptide daily, 5 days
Protocol: (§1) Cell proliferation assay. To test the anti-VEGF antibody neutralizing effect, CPAE cells were plated into 96-well tissue culture plates at a density of 500 cells/well. After 24 h, various concentrations of anti-VEGF antibody were added. The cells were cultured for an additional day and cell proliferation was measured using the Cell proliferation ELISA kit from Boerhinger (Indianapolis, Ind.). Cells were incubated with BrdU for 4 h at 37 C., and the incorporation of BrdU in newly synthetized DNA was quantified by immunoassay as described by the manufacturer. To investigate the peptide effect, after 24 h of CPAE cell growth, 2.1×10^−4M synthetic peptides were added daily to the culture medium. Cell proliferation was assessed after 24 h, 48 h or 72 h as described above. […] Cells were trypsinized and counted after 5 days using a Coulter counter.

VEGF-R2 on HUV-EC cells = format: binding; conditions: for Kd: Scatchard analysis
Excerpt: (§2) Experimental conditions are indicated in the legend of FIG. 10.
(see FIGS. 16A, B and C).

CPAE cells = experiment: CPAE cell proliferation assay (BrdU incorporation); format: cell-based, calf
Protocol: as §1

neuropilin 1 (NP1) = molecular target: T2, neuropilin 1 (NP1) (Homo sapiens, UniProt O14786); experiment: Displacement of 125I-VEGF165 binding to MDA-MB 231 cells; conditions: cells without VEGF-R2, expressing NP1; read-out: CI 50 of inhibition of 125I VEGF165 binding to MDA-MB cells (converted)
T2 construct: endogenous in cells; host or cells: MDA-MB 231 breast tumoral cell line
Excerpt: as §2

HUAE cells [5] = experiment: VEGF-induced HUAE cell proliferation; format: cell-based, human; conditions: 2 ng/ml VEGF, peptide daily, counted after 5 days
Protocol: as §1

[6] = system: VEGF-R2-VEGF165 and NP1-VEGF165 complexes; experiment: Cross linking of I125 VEGF165 to HUV-EC cells; format: binding, human; conditions: V1 2.4×10−4M and 4.8×10−4M, I125 VEGF165 160 pM
Excerpt: FIG. 19: Cross linking of I125 VEGF165 (160 pM) to HUV-EC cells. 1: Total binding. […] 3: V1, (2.4×10−4M). 4: V1, (4.8×10−4M).
The 240-260 kDa complex could correspond to the […] complex and the 160-170 kDa complex could correspond to the NP1 -VEGF 165 complex. The labeling of the two complexes was decreased in the presence of the V1 peptide. (FIG. 19)

T1 sequence (P35968 20-1356): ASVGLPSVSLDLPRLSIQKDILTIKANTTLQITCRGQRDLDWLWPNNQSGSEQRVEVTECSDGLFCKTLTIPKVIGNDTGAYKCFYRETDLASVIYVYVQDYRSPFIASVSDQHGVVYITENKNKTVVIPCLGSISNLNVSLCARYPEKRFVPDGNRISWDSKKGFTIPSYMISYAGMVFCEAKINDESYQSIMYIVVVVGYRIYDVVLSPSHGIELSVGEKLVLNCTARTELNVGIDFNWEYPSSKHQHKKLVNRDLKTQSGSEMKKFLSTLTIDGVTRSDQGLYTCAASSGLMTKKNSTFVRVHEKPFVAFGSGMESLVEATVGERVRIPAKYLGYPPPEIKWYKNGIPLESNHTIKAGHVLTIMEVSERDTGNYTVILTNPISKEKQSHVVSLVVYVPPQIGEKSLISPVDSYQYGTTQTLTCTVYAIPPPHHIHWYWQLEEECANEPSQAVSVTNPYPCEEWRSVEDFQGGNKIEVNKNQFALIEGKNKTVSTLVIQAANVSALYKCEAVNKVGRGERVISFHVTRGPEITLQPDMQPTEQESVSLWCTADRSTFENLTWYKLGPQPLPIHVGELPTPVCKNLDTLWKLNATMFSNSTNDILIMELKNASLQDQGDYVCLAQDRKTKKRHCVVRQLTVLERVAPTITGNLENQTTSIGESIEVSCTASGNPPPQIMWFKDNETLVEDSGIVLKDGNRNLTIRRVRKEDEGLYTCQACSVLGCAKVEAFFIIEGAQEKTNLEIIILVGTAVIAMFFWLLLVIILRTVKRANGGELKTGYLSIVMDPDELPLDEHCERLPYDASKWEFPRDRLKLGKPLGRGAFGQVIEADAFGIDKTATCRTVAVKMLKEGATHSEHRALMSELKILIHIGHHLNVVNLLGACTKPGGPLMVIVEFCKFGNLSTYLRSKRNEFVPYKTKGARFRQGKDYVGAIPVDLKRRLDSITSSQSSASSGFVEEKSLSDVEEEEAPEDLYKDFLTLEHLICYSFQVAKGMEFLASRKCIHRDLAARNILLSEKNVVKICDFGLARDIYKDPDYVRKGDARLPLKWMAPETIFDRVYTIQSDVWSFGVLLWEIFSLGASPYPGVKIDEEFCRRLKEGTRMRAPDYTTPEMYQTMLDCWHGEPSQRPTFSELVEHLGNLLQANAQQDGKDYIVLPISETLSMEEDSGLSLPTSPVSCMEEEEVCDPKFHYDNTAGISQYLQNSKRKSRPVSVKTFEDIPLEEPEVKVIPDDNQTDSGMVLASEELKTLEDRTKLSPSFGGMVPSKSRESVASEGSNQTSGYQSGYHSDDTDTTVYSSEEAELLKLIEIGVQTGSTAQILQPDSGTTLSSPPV
T2 sequence (O14786 22-923): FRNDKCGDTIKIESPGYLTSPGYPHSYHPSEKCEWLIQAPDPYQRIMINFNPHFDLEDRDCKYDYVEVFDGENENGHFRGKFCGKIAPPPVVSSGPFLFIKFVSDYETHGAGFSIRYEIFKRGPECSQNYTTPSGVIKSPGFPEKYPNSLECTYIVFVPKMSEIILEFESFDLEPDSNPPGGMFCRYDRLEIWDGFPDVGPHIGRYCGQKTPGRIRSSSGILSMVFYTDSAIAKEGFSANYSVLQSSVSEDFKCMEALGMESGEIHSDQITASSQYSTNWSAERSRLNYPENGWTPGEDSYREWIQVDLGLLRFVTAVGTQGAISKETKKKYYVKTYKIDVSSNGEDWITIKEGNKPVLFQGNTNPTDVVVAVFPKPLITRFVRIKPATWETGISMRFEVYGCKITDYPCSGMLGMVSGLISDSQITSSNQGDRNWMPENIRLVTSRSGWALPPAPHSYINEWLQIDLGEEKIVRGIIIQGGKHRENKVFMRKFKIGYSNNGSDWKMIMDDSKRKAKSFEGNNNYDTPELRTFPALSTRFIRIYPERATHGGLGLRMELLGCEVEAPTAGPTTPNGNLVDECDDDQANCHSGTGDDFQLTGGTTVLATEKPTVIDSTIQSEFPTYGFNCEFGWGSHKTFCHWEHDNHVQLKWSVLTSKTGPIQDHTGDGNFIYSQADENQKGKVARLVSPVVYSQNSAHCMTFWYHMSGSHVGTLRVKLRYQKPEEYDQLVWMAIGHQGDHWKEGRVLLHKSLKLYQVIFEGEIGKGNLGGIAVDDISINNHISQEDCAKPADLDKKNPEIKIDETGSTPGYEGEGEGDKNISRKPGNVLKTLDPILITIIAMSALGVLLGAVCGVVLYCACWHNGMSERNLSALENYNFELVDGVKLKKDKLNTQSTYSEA

Substance: AAWLPPK [A9, V1 analogue, substitution of the C-terminal arginine by lysine]
efficiency of V1 analogues in displacing 125I-VEGF165 from CHO-KDR cells (KDR [1]): reduced the peptide efficiency

Substance: ATALPP [A10]
efficiency of V1 analogues in displacing 125I-VEGF165 from CHO-KDR cells (KDR [1]): significantly reduced the peptide efficiency

Substance: ATWLPPA [A7]
efficiency of V1 analogues in displacing 125I-VEGF165 from CHO-KDR cells (KDR [1]): totally devoid of activity

ELISA signal of phage clones on CHO-KDR cells (KDR [3]): best reactivities | IC50 (neuropilin 1 (NP1)): 45200 nM
Substance: ATWLPPR [V1, ATWLPPR]
effect on VEGF-induced corneal angiogenic response [2]: totally abolished | corneal neovascularization by peptide alone vs vehicle [2]: did not improve the generation of new blood vessels | inhibition of VEGF-induced HUVEC proliferation (HUVEC): inhibited by V1 in a non competitive manner | effect on affinity of I125 VEGF165 for receptors of transfected CHO cells (Scatchard) (KDR [1]; V1 50 μg/ml): lowered | effect on heparin-dependent VEGF165 binding to transfected CHO cells (KDR [1]; V1 50 μg/ml): inhibited this heparin agonistic effect | inhibitory effect on VEGF binding to KDR (CHO-KDR cells) (KDR [1]): showed an inhibitory effect | inhibition of AIA-dependent HUAE cell proliferation (HUAE cells [4]): could suppress the AIA-dependent cell proliferation | effect on VEGF binding to HUV-EC cells (VEGF-R2 on HUV-EC cells; V1 40 μg/ml, Scatchard): inhibited only the VEGF binding to high affinity receptors | reduction of CPAE cell proliferation (CPAE cells; 2.1×10^−4 M peptide, 24 h): 60% | inhibition of VEGF-induced HUAE cell proliferation (HUAE cells [5]): suppressed the mitogenic activity of VEGF in a dose dependent manner | labeling of the two 125I-VEGF-receptor complexes [6]: decreased

Substance: Heparin [reference compound]
optimal heparin concentration for increasing VEGF binding to CHO-KDR cells (KDR [1]): 1.8 µg/mL

Substance: ILDNYKL [V5]
effect on VEGF-induced corneal angiogenic response [2]: not modified | corneal neovascularization by peptide alone vs vehicle [2]: did not improve the generation of new blood vessels | effect on VEGF binding to CHO-KDR cells, various concentrations (KDR [1]; same conditions as V1 dose response, FIG. 5): did not modify VEGF binding | inhibition of AIA-dependent HUAE cell proliferation (HUAE cells [4]): unlike V5, V1 could suppress | inhibition of VEGF-induced HUAE cell proliferation (HUAE cells [5]): no inhibitory effect

ELISA signal of phage clones on CHO-KDR cells (KDR [3]): best reactivities
Substance: LPPNPTK [V6]
inhibitory effect on VEGF binding to KDR (CHO-KDR cells) (KDR [1]): no effect on VEGF binding to KDR

Substance: SLPAHAR [K4]
effect on endothelial cell growth (words, discussion) (CPAE cells; in vitro): minor effect on endothelial growth

Substance: VEGF
Kd (VEGF-R2 on HUV-EC cells; read-out: Kd of I125 VEGF165 on HUV-EC cells, high affinity receptors): 0.117 nM | Kd (VEGF-R2 on HUV-EC cells; read-out: Kd of I125 VEGF165 on HUV-EC cells, second (lower affinity) receptors): 2.3 nM
